Holding throughout (assay type): functional, cell membranes, Plasma membrane vesicle
In series [1] the target is ATP-binding cassette sub-family C member 2 (Rattus norvegicus, UniProt Q63120). The experiment in a line: (§1) TP_TRANSPORTER: uptake in liver plasma membrane vesicles of Wistar rat.
In series [2] the target is T1, ATP-binding cassette sub-family C member 2 (ABCC2) (Rattus norvegicus, UniProt Q63120). The experiment in a line: TP_TRANSPORTER: inhibition of LTC4 uptake (LTC4: 0.01 uM, Vinblastine: 100 uM) in liver plasma membrane vesicles of Wistar rat. The arrangement: scale not given: the % may be the effect or the level left. Particulars: probe LTC4 (0.01 uM), read-out: Activity.

Series [3] has as its target T1, ATP-binding cassette sub-family C member 2 (ABCC2). The experiment in a line: TP_TRANSPORTER: inhibition of LTC4 uptake (LTC4: 0.01 uM, Vincristine: 100 uM) in liver plasma membrane vesicles of Wistar rat. Also on record: scale not given: the % may be the effect or the level left. The settings on record: probe LTC4 (0.01 uM), read-out: Activity.
Substrate in series [4]: CCCCC/C=C\C\C=C/C=C/C=C/[C@@H](SC[C@H](NC(C)=O)C(=O)O)[C@@H](O)CCCC(=O)O
Described as §1.

Substrate in series [5]: CCCCC/C=C\C\C=C/C=C/C=C/[C@@H](SC[C@@H](NC(=O)CC[C@H](N)C(=O)O)C(=O)NCC(=O)O)[C@@H](O)CCCC(=O)O
The series is described as §1.

Substrate in series [6]: CCCCC/C=C\C\C=C/C=C/C=C/[C@@H](SC[C@H](N)C(=O)NCC(=O)O)[C@@H](O)CCCC(=O)O
The description is as §1.

Activity, activity and Km data for 4 molecules are collected here from ChEMBL document CHEMBL2074429, “ATP-dependent primary active transport of cysteinyl leukotrienes across liver canalicular membrane. Role of the ATP-dependent transport system for glutathione S-conjugates” (J Biol Chem, 1990).

`CCCCC/C=C\C\C=C/C=C/C=C/[C@@H](SC[C@H](N)C(=O)O)[C@@H](O)CCCC(=O)O` [LEUKOTRIEN E4]: the Activity entry in series [1] was “substrate [+]”.
On to `CC[C@]1(O)C[C@@H]2CN(CCc3c([nH]c4ccccc34)[C@@](C(=O)OC)(c3cc4c(cc3OC)N(C)[C@H]3[C@@](O)(C(=O)OC)[C@H](OC(C)=O)[C@]5(CC)C=CCN6CC[C@]43[C@@H]65)C2)C1` [VINBLASTINE], for which the activity at 100 µM in series [2] amounted to 29%.
Turning to `CC[C@]1(O)C[C@H]2CN(CCc3c([nH]c4ccccc34)[C@@](C(=O)OC)(c3cc4c(cc3OC)N(C=O)[C@H]3[C@@](O)(C(=O)OC)[C@H](OC(C)=O)[C@]5(CC)C=CCN6CC[C@]43[C@@H]65)C2)C1` [VINCRISTINE], the activity at 100 µM in series [3] is 42%.

B1: ATP-binding cassette sub-family C member 2 (Rattus norvegicus) (protein)
chain: MDKFCNSTFWDLSLLESPEADLPLCFEQTVLVWIPLGFLWLLAPWQLYSVYRSRTKRSSITKFYLAKQVFVVFLLILAAIDLSLALTEDTGQATVPPVRYTNPILYLCTWLLVLAVQHSRQWCVRKNSWFLSLFWILSVLCGVFQFQTLIRALLKDSKSNMAYSYLFFVSYGFQIVLLILTAFSGPSDSTQTPSVTASFLSSITFSWYDRTVLKGYKHPLTLEDVWDIDEGFKTRSVTSKFEAAMTKDLQKARQAFQRRLQKSQRKPEATLHGLNKKQSQSQDVLVLEEAKKKSEKTTKDYPKSWLIKSLFKTFHVVILKSFILKLIHDLLVFLNPQLLKLLIGFVKSSNSYVWFGYICAILMFAVTLIQSFCLQSYFQHCFVLGMCVRTTVMSSIYKKALTLSNLARKQYTIGETVNLMSVDSQKLMDATNYMQLVWSSVIQITLSIFFLWRELGPSILAGVGVMVLLIPVNGVLATKIRNIQVQNMKNKDKRLKIMNEILSGIKILKYFAWEPSFQEQVQGIRKKELKNLLRFGQLQSLLIFILQITPILVSVVTFSVYVLVDSANVLNAEKAFTSITLFNILRFPLSMLPMVTSSILQASVSVDRLERYLGGDDLDTSAIRRVSNFDKAVKFSEASFTWDPDLEATIQDVNLDIKPGQLVAVVGTVGSGKSSLVSAMLGEMENVHGHITIQGSTAYVPQQSWIQNGTIKDNILFGSEYNEKKYQQVLKACALLPDLEILPGGDMAEIGEKGINLSGGQKQRVSLARAAYQDADIYILDDPLSAVDAHVGKHIFNKVVGPNGLLAGKTRIFVTHGIHFLPQVDEIVVLGKGTILEKGSYRDLLDKKGVFARNWKTFMKHSGPEGEATVNNDSEAEDDDDGLIPTMEEIPEDAASLAMRRENSLRRTLSRSSRSSSRRGKSLKNSLKIKNVNVLKEKEKEVEGQKLIKKEFVETGKVKFSIYLKYLQAVGWWSILFIILFYGLNNVAFIGSNLWLSAWTSDSDNLNGTNNSSSHRDMRIGVFGALGLAQGICLLISTLWSIYACRNASKALHGQLLTNILRAPMRFFDTTPTGRIVNRFSGDISTVDDLLPQTLRSWMMCFFGIAGTLVMICMATPVFAIIIIPLSILYISVQVFYVATSRQLRRLDSVTKSPIYSHFSETVTGLPIIRAFEHQQRFLAWNEKQIDINQKCVFSWITSNRWLAIRLELVGNLVVFCSALLLVIYRKTLTGDVVGFVLSNALNITQTLNWLVRMTSEAETNIVAVERISEYINVENEAPWVTDKRPPADWPRHGEIQFNNYQVRYRPELDLVLKGITCNIKSGEKVGVVGRTGAGKSSLTNCLFRILESAGGQIIIDGIDVASIGLHDLRERLTIIPQDPILFSGSLRMNLDPFNKYSDEEVWRALELAHLRSFVSGLQLGLLSEVTEGGDNLSIGQRQLLCLGRAVLRKSKILVLDEATAAVDLETDSLIQTTIRKEFSQCTVITIAHRLHTIMDSDKIMVLDNGKIVEYGSPEELLSNRGSFYLMAKEAGIENVNHTEL
With B1, the Km amounted to 5.2 µM in series [4], 0.25 µM in series [5] and 1.5 µM in series [6].

As a reminder, the Km is the concentration of substrate that gives half-maximal velocity.
